Results taken from patent US4874752A, “Benzoquinone derivatives and production thereof” (Takeda Chemical Industries, Ltd., priority 1982, dated 1989).
Where a name gives a salt, the structure may show the parent alone.

Molecular target: T1, protocollagen-proline hydroxylase (Gallus gallus, UniProt P16924)
T1 construct: partially purified enzyme preparation obtained from chick embryos; from tissue; host or cells: chick embryos (partially purified enzyme)
T1 sequence (P16924 1-516): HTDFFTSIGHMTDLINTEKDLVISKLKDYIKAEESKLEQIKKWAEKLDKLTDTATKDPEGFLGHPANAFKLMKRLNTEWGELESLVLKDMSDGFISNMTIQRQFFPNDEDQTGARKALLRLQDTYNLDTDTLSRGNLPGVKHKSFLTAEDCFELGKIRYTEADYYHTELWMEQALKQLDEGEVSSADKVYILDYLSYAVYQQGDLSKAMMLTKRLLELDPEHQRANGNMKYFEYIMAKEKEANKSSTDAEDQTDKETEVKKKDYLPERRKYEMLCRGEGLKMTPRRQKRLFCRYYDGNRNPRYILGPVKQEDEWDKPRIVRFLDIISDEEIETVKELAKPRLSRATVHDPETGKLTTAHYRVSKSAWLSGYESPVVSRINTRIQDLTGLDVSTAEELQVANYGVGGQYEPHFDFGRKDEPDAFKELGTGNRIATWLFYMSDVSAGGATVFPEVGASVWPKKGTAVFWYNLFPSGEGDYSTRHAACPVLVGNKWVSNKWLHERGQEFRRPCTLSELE
T1 sequence (P09102 23-515 partner): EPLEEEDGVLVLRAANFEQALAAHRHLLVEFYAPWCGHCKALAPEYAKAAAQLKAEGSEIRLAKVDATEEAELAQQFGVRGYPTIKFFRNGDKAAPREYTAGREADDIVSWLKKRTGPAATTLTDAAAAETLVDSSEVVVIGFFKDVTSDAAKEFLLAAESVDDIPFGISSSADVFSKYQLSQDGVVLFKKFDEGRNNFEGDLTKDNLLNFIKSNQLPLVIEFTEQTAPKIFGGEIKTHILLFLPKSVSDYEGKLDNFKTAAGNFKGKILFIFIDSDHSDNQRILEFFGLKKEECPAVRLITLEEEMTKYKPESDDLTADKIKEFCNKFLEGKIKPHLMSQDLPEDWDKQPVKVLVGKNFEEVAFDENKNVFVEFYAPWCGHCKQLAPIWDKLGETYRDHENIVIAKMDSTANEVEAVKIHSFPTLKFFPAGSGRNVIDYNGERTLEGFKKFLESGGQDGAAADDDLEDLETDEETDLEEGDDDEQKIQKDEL
Assay: Inhibitory activity of protocollagen-proline hydroxylase
Format: biochemical, chick embryos
Details: for inhibition at 10 µM / Inhibition of protocollagen-proline hydroxylase: 10 μM
Text: Determination of this inhibitory activity was made by the method of R. E. Rhoads et al. [Methods in Enzymology XVII B, 306 (1971)] using a partially purified enzyme preparation obtained from chick embryos in accordance with the methods of K. I. Kivirriko et al. and J. Halme et al. [J. Biol, Chem. 242, 4007 (1967) and Biochim. Biophys. Acta 198, 460 (1967)] and, as a substrate, (Pro-Pro-Gly)5.4H2 O[prepared by the Protein Research Foundation, Osaka]. In this procedure, the partially purified enzyme was used in an amount of 100 μg as protein.

SMILES	inhibition at 20 µM	inhibition at 10 µM	inhibition at 50 µM	further results
COC1=C(OC)C(=O)C(CN2CCOCC2)=C(C)C1=O	78%			
COC1=C(OC)C(=O)C(CCCCCCCCCCN2CCOCC2)=C(C)C1=O				inhibition at 25 µM (25 μM): 30%
COC1=C(OC)C(=O)C(CCOc2ccc(/C=C/C(=O)O)cc2)=C(C)C1=O	100%	99.9%	100%	inhibition at 2.5 µM: 62%; inhibition at 5 µM: 72%
COC1=C(OC)C(=O)C(c2nc3cc(C(C)C(=O)O)ccc3o2)=C(C)C1=O (stereo not drawn)	76%	54%	84%	
COC1=C(OC)C(=O)C(CC=C(C)COc2ccc(CC(=O)O)cc2)=C(C)C1=O [drawing 20]	48%	34%	92%	
COC1=C(OC)C(=O)C(/C=C/C(=O)O)=C(C)C1=O [drawing 25]	46%	37%	68%	inhibition at 2.5 µM: 0%; inhibition at 5 µM: 22%
COC1=C(OC)C(=O)C(CCC(=O)N[C@@H](CCCNC(=N)N)C(=O)O)=C(C)C1=O [m:0, n:2, Z:COArg (salt of acetic acid), 3-(2,3-dimethoxy-5-methyl-1,4-benzoquinon-6-yl)propionyl-L-arginine]	56%			
COC1=C(OC)C(=O)C(CCC(=O)N[C@@H](CCC(=O)O)C(=O)O)=C(C)C1=O [m:0, n:2, Z:COGlu, 3-(2,3-dimethoxy-5-methylbenzoquinon-6-yl)propionyl-L-glutamic acid]	20%			
COC1=C(OC)C(=O)C(CCC(=O)N[C@@H](Cc2ccc(O)cc2)C(=O)O)=C(C)C1=O [m:0, n:2, Z:COTyr, 3-(2,3-dimethoxy-5-methyl-1,4-benzoquinon-6-yl)propionyl-L-tyrosine]	35%			
COC1=C(OC)C(=O)C(CCC(=O)N[C@@H](C)C(=O)O)=C(C)C1=O [m:0, n:2, Z:CoAla, 3-(2,3-dimethoxy-5-methyl-1,4-benzoquinon-6-yl)propionyl-L-alanine]	32%			
COC1=C(OC)C(=O)C(CCCCCCCCCC(=O)N[C@@H](Cc2c[nH]cn2)C(=O)O)=C(C)C1=O [m:0, n:9, Z:COHis, 10-(2,3-dimethoxy-5-methyl-1,4-benzoquinon-6-yl)decanoyl-L-histidine]	52%			
COC1=C(OC)C(=O)C(CCCCCCCCCC(=O)OC[C@H]2OC(O)[C@H](NC(C)=O)[C@@H](O[C@H](C)C(=O)O)[C@@H]2O)=C(C)C1=O (stereo partly drawn) [m:0, n:9, Z:COMurNAc, N-acetyl-6O-[10-(2,3-dimethoxy-5-methyl-1,4-benzoquinon-6-yl)decanoyl]muraminic acid]	32%			
COC1=C(OC)C(=O)C(CCCCCCCCCC(=O)N[C@H](Cc2ccccc2)C(=O)O)=C(C)C1=O [m:0, n:9, Z:COPhe, 10-(2,3-dimethoxy-5-methyl-1,4-benzoquinon-6-yl)decanoyl-D-phenylalanine]	35%			

Now from value to compound, other results behind:

inhibition at 20 µM	inhibition at 10 µM	inhibition at 50 µM	SMILES	further results
35%			COC1=C(OC)C(=O)C(CCCCCCCCCC(=O)N2CSCC2C(=O)O)=C(C)C1=O (stereo not drawn)	
100%	100%	100%	COC1=C(OC)C(=O)C(CCOc2ccc(CC(=O)O)cc2)=C(C)C1=O	inhibition at 2.5 µM: 64%; inhibition at 5 µM: 74%; Inhibition of protocollagen-proline hydroxylase: 82%
100%	100%	100%	COC1=C(OC)C(=O)C(COc2ccc(C(C)C(=O)O)cc2)=C(C)C1=O (stereo not drawn)	inhibition at 2.5 µM: 70%; inhibition at 5 µM: 75%; Inhibition of protocollagen-proline hydroxylase: 92%
67%	38%	76%	COC(=O)/C=C/C=C/C=C/C=C/C1=C(C)C(=O)C(OC)=C(OC)C1=O	
92%	85%	92%	COC1=C(OC)C(=O)C(/C=C/C(C)=O)=C(C)C1=O [drawing 26]	inhibition at 2.5 µM: 51%; inhibition at 5 µM: 72%
46%			COC1=C(OC)C(=O)C(CCC(=O)NCC(=O)O)=C(C)C1=O [m:0, n:2, Z:COGly, 3-(2,3-dimethoxy-5-methyl-1,4-benzoquinone-6-yl)propionyl-glycine]	
35%			COC1=C(OC)C(=O)C(CCC(=O)N2CCC[C@H]2C(=O)O)=C(C)C1=O [m:0, n:2, Z:COPro, 3-(2,3-dimethoxy-5-methyl-1,4-benzoquinon-6-yl)propionyl-L-proline]	
52%			COC1=C(OC)C(=O)C(CCCCCCCCCC(=O)N[C@@H](CCCNC(=N)N)C(=O)O)=C(C)C1=O [m:0, n:9, Z:COArg (salt of acetic acid), 10-(2,3-dimethoxy-5-methyl-1,4-benzoquinon-6-yl)decanoyl-L-arginine]	
52%			COC1=C(OC)C(=O)C(CCCCCCCCCC(=O)N[C@H]2C(O)O[C@H](CO)[C@@H](O)[C@@H]2O)=C(C)C1=O (stereo partly drawn) [m:0, n:9, Z:COGlcN, N-[10-(2,3-dimethoxy-5-methyl-1,4-benzoquinon-6-yl)decanoyl]glucosamine]	
37%			COC1=C(OC)C(=O)C(CCCCCCCCCC(=O)NC(CCC(=O)O)C(=O)O)=C(C)C1=O (stereo not drawn) [m:0, n:9, Z:COGlu]	
25%			COC1=C(OC)C(=O)C(CCCCCCCCCC(=O)N[C@@H](CCCCN)C(=O)O)=C(C)C1=O [m:0, n:9, Z:COLys, 10-(2,3-dimethoxy-5-methyl-1,4-benzoquinon-6-yl)decanoyl-L-lysine]	
38%			COC1=C(OC)C(=O)C(CCCCCCCCCC(=O)N[C@@H](CCSC)C(=O)O)=C(C)C1=O [m:0, n:9, Z:COMet, 10-(2,3-dimethoxy-5-methyl-1,4-benzoquinon-6-yl)decanoyl-L-methionine]	
15%			COC1=C(OC)C(=O)C(CCCCCCCCCC(=O)N[C@@H](Cc2c[nH]c3ccccc23)C(=O)O)=C(C)C1=O [m:0, n:9, Z:COTrp, 10-(2,3-dimethoxy-5-methyl-1,4-benzoquinon-6-yl)decanoyl-L-tryptophan]	
